Data from patent publication US11395489B2, “Microbiocidal picolinamide derivatives” (Syngenta Participations AG, priority 2017, dated 2022).

How the values were obtained:
[1] = tested on: Mycosphaerella arachidis (Cercospora arachidicola); test: Mycosphaerella arachidis (Cercospora arachidicola) / liquid culture (Early Leaf Spot); assay type: cell-based; conditions: 96 h, 200 ppm in the formulation, inhibition of growth determined photometrically 4-5 days after application, read-out: disease control
Experimental: Mycosphaerella arachidis (Cercospora arachidicola)/Liquid Culture (Early Leaf Spot) Conidia of the fungus from cryogenic storage are directly mixed into nutrient broth (PDB potato dextrose broth). After placing a (DMSO) solution of test compound into a microtiter plate (96-well format), the nutrient broth containing the fungal spores is added. The test plates are incubated at 24° C. and the inhibition of growth is determined photometrically 4-5 days after application.

[2] = tested on: Puccinia recondita f. Sp. Tritici; test: Puccinia recondita f. sp. tritici / wheat / leaf disc preventative (Brown Rust); assay type: in vivo; conditions: foliar, 168 h, 200 ppm in the formulation, compared to untreated, 7-9 days after application, read-out: disease control
[3] = tested on: Botryotinia fuckeliana (Botrytis cinerea); test: Botryotinia fuckeliana (Botrytis cinerea) / liquid culture (Gray Mould); assay type: cell-based; conditions: 72 h, 200 ppm in the formulation, inhibition of growth determined photometrically 3-4 days after application, read-out: disease control
Experimental: Botryotinia fuckeliana (Botrytis cinerea)/Liquid Culture (Gray Mould) Conidia of the fungus from cryogenic storage are directly mixed into nutrient broth (Vogels broth). After placing a (DMSO) solution of test compound into a microtiter plate (96-well format), the nutrient broth containing the fungal spores is added. The test plates are incubated at 24° C. and the inhibition of growth is determined photometrically 3-4 days after application.

[4] = tested on: Monocraphella nivalis (Microdochium nivale); test: Monocraphella nivalis (Microdochium nivale) / liquid culture (Foot Rot Cereals); assay type: cell-based; conditions: 96 h, 200 ppm in the formulation, inhibition of growth determined photometrically 4-5 days after application, read-out: disease control
Experimental: Monocraphella nivalis (Microdochium nivale)/Liquid Culture (Foot Rot Cereals) Conidia of the fungus from cryogenic storage are directly mixed into nutrient broth (PDB potato dextrose broth). After placing a (DMSO) solution of test compound into a microtiter plate (96-well format), the nutrient broth containing the fungal spores is added. The test plates are incubated at 24° C. and the inhibition of growth is determined photometrically 4-5 days after application.

[5] = tested on: Mycosphaerella Raminicola (Septoria tritici); test: Mycosphaerella Raminicola (Septoria tritici) / liquid culture (Septoria Blotch); assay type: cell-based; conditions: 200 ppm in the formulation, inhibition of growth determined photometrically 4 to 5 days after application, read-out: disease control
Experimental: Mycosphaerella Raminicola (Septoria tritici)/Liquid Culture (Septoria Blotch) Conidia of the fungus from cryogenic storage are directly mixed into nutrient broth (PDB potato dextrose broth). After placing a (DMSO) solution of test compound into a microtiter plate (96-well format), the nutrient broth containing the fungal spores is added. The test plates are incubated at 24° C. and the inhibition of growth is determined photometrically 4 to 5 days after application.

[6] = tested on: Magnaporthe risea (Pyricularia Oryzae); test: whole plant or invertebrate; assay type: in vivo; conditions: foliar, read-out: disease control
[7] = tested on: Glomerella lacenarium (Colletotrichum lacenarium); test: Glomerella lacenarium (Colletotrichum lacenarium) / liquid culture (Anthracnose); assay type: cell-based; conditions: 200 ppm in the formulation, inhibition of growth measured photometrically 3-4 days after application, read-out: disease control
Experimental: Glomerella lacenarium (Colletotrichum lacenarium)/Liquid Culture (Anthracnose) Conidia of the fungus from cryogenic storage are directly mixed into nutrient broth (PDB potato dextrose broth). After placing a (DMSO) solution of test compound into a microtiter plate (96-well format), the nutrient broth containing the fungal spores is added. The test plates are incubated at 24° C. and the inhibition of growth is measured photometrically 3-4 days after application.

COc1ccnc(C(=O)N[C@@H](C)C(=O)OC(C)C2(c3ccccc3)CC2)c1O (stereo partly drawn) [I.a.006, 1-(1-phenylcyclopropyl)ethyl (2S)-2-[(3-hydroxy-4-methoxy-pyridine-2-carbonyl)amino]propanoate]
≥ 80%: inhibition of growth at 200 ppm [1] | pest or weed control at 200 ppm [2] | inhibition of growth at 200 ppm [3] | inhibition of growth at 200 ppm [4] | inhibition of growth at 200 ppm [5] | pest or weed control at 200 ppm [6]

COc1ccnc(C(=O)N[C@@H](C)C(=O)OC(C)C2(c3cccc(Br)c3)CC2)c1O (stereo partly drawn) [I.d.006, 1-[1-(3-bromophenyl)-cyclopropyl]ethyl (2S)-2-[(3-hydroxy-4-methoxy-pyridine-2-carbonyl)amino]propanoate]
≥ 80%: inhibition of growth at 200 ppm [1] | pest or weed control at 200 ppm [2] | inhibition of growth at 200 ppm [3] | inhibition of growth at 200 ppm [7] | inhibition of growth at 200 ppm [4] | inhibition of growth at 200 ppm [5]

COc1ccnc(C(=O)N[C@@H](C)C(=O)OC(C)C2(c3ccc(F)cc3)CC2c2ccc(F)cc2)c1O (stereo partly drawn) [I.j.011, 1-[1,2-bis(4-fluoro-phenyl)cyclopropyl]-ethyl (2S)-2-[(3-hydroxy-4-methoxy-pyridine-2-carbonyl)-amino]propanoate]
≥ 80%: inhibition of growth at 200 ppm [1] | pest or weed control at 200 ppm [2] | inhibition of growth at 200 ppm [7] | inhibition of growth at 200 ppm [4] | inhibition of growth at 200 ppm [5]

COc1ccnc(C(=O)N[C@@H](C)C(=O)OC(C)C2(c3cccc4ccccc34)CC2c2ccc(F)cc2)c1O (stereo partly drawn) [I.v.011, 1-[2-(4-fluorophenyl)-1-(1-naphthyl)cyclo-propyl]ethyl (2S)-2-[(3-hydroxy-4-methoxy-pyridine-2-carbonyl)amino]-propanoate]
≥ 80%: inhibition of growth at 200 ppm [1] | pest or weed control at 200 ppm [2] | inhibition of growth at 200 ppm [7] | inhibition of growth at 200 ppm [5]

COc1ccnc(C(=O)N[C@@H](C)C(=O)OC(C)C2(c3cccc4ccccc34)CC2c2ccccc2)c1O (stereo partly drawn) [I.v.010, 1-[1-(1-naphthyl)-2-phenyl-cyclopropyl]-ethyl (2S)-2-[(3-hydroxy-4-methoxy-pyridine-2-carbonyl)-amino]propanoate]
≥ 80%: inhibition of growth at 200 ppm [1] | pest or weed control at 200 ppm [2] | inhibition of growth at 200 ppm [7] | inhibition of growth at 200 ppm [5]

COc1ccnc(C(=O)N[C@@H](C)C(=O)OC(C)C(C)(C)c2ccc(F)cc2)c1O (stereo partly drawn) [I.j.001, [2-(4-fluorophenyl)-1,2-dimethyl-propyl] (2S)-2-[(3-hydroxy-4-methoxy-pyridine-2-carbonyl)-amino]propanoate]
≥ 80%: inhibition of growth at 200 ppm [1] | pest or weed control at 200 ppm [2] | inhibition of growth at 200 ppm [3] | inhibition of growth at 200 ppm [7] | inhibition of growth at 200 ppm [4] | inhibition of growth at 200 ppm [5]

COc1ccnc(C(=O)N[C@@H](C)C(=O)OC(C)C2(c3ccc(F)cc3)CC2c2ccccc2)c1O (stereo partly drawn) [I.j.010, 1-[1-(4-fluorophenyl)-2-phenyl-cyclopropyl]-ethyl (2S)-2-[(3-hydroxy-4-methoxy-pyridine-2-carbonyl)-amino]propanoate]
≥ 80%: inhibition of growth at 200 ppm [1] | pest or weed control at 200 ppm [2] | inhibition of growth at 200 ppm [7] | inhibition of growth at 200 ppm [5]
